Test results from patent US7879566B2, “Methods for the identification of modulators of OSGPR114 or OSGPR78 activity, and their use in the treatment of disease” (OSI Pharmaceuticals, Inc., priority 2003, dated 2011).

Experiments:
OSGPR78 = biological target: T1, OSGPR78 (Homo sapiens, UniProt P43657, I33V); test: Yeast Fus1p-LacZ β-galactosidase reporter assay, OSGPR78-transformed yeast; assay type: cell-based; conditions: Galpha i and Galpha 12/13 family chimeras (13393, 15074, 13395)
T1 construct: expressed in transfected cells; host or cells: engineered yeast (GPA1 replaced by G-alpha chimeras, STE3 deleted; Fus1p-LacZ reporters)
T1 sequence (P43657 1-344 I33V): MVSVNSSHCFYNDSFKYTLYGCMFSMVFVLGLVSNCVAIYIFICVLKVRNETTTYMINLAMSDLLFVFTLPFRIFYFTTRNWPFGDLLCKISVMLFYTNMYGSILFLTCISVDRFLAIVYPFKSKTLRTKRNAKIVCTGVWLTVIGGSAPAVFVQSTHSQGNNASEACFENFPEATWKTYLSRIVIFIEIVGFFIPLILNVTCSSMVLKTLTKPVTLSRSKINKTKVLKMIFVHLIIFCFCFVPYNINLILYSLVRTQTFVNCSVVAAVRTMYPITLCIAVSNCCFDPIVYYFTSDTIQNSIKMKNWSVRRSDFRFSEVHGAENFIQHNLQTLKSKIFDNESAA
Text: The yeast cell-based reporter assays have previously been described in the literature (e.g. see Miret J. J., et. al. (2002) J. Biol. Chem. 277:6881-6887; Campbell R. M., et. al. (1999) Bioorg Med. Chem. Lett. 9:2413-2418; King K., et. al. (1990) Science. 250:121-123); WO 99/14344; WO 00/12704; and U.S. Pat. No. 6,100,042). Briefly, yeast cells have been engineered such that the endogenous yeast G-alpha (GPA1) has been deleted and replaced with G-protein chimeras constructed using multiple techniques. Additionally the endogenous yeast alpha-cell GPCR, STE3 has been deleted to allow for a […] expression of a mammalian GPCR of choice. In the yeast, elements of the pheromone signaling transduction pathway, which are conserved in eukaryotic cells (for example, the mitogen-activated protein kinase pathway), drive the expression of Fus1. By placing β-galactosidase (LacZ) under the control of the Fus1 promoter (Fus1p), a system has been developed whereby receptor activation leads to an enzymatic read-out. Different yeast strains (e.g. FIG. 6) denote the presence of different G-alpha chimeras (see “yeast reporter assays” in Results section below for definitions).
Yeast cells are transformed by an adaptation of the Lithium acetate method described by Agatep et.al. (Agatep, R., et. al. (1998) Transformation of Saccharomyces cerevisiae by the lithium acetate/single-stranded carrier DNA/polyethylene glycol (LiAc/ss-DNA/PEG) protocol. Technical Tips Online, Trends Journals, Elsevier). Briefly, yeast cells are grown overnight on yeast tryptone plates (YT). Carrier single-stranded DNA (10 μg), 2 μg of each of two Fus1p-LacZ reporter plasmids (one with URA3 selection marker and one with TRP1), 2 μg of OSGPR114 or OSGPR78 in yeast expression vector (2p origin of replication) and a lithium acetate/polyethylene glycol/TE buffer is pipetted into an Epindorf tube. The yeast expression plasmid containing the receptor/no receptor control has a LEU2 marker. Yeast cells are inoculated into this mixture and the reaction proceeds at 30° C. for 60 minutes. The yeast cells are then heat-shocked at 42° C. for 15 minutes. The cells are then washed and spread on selection plates. The selection plates are synthetic defined yeast media minus LEU, URA and TRP (SD-LUT). After incubating at 30° C. for 2-3 days, colonies that grow on the selection plates are then tested in the LacZ assay.
In order to perform fluorometric enzyme assays for β-galactosidase, yeast cells were grown overnight in liquid SD-LUT media to an unsaturated concentration (i.e. the cells are still dividing and have not yet reached stationary phase). They are diluted in fresh media to an optimal assay concentration and 90 μL of yeast cells were added to 96-well black polystyrene plates (Costar). Compounds, dissolved in ethanol and diluted in a 1% BSA solution to 10× concentration, were added to the plates and the yeast are placed at 30° C. for 4 h. After 4 h, the substrate for the β-galactosidase is added to each well: The substrate may yield a fluorescent or calorimetric read-out upon the activity of the β-galactosidase. In these experiments, Fluorescein di(β-D-galactopyranoside) was used (FDG), a substrate for the enzyme that releases fluorescein, allowing a fluorometric read-out. 20 μL of 500 μM FDG was used. After incubation of the cells with the substrate for 30-60 mins, 20 μL of 1 M sodium carbonate is added to terminate the reaction and enhance the fluorescent signal. The plates were then read in a fluorometer at 485/535 nm. As an alternate read-out system, the yeast are also engineered with a Fus1p-HIS gene which means that activation of the receptor can also be measured through the growth of the yeast in a […] media.

ERK in ASPC-1 cells = test: ERK phosphorylation by LPA; assay type: cell-based, human; conditions: 10 μM LPA, 3 mins
Experimental: FIG. 23: Ability of LPA to phosphorylate ERK in cell lines known to express OSGPR114. 10 μM LPA and 1 μM EGF were used for this experiment, and the cells were stimulated with ligand for 3 mins prior to lysing.
One of the principal proliferative signaling pathways is the activation of ERK. […] However, the ability of LPA acting at OSGPR114 to effect ERK is unknown. HCT-8 cells, which express OSGPR114 at high levels, provide one of the best models available. […] This evidence supporting the hypothesis that LPA, likely acting at least in part at OSGPR114, induces ERK activation, a signaling pathway that is known to stimulate cellular proliferation.

response in yeast G-alpha chimera strains (OSGPR78): optimal for LPA response
Substance: lysophosphatidic acid [LPA]
ERK activation (ERK in ASPC-1 cells): stimulate ERK
